Assay results taken from ChEMBL document CHEMBL1129919, “Cyclic homopentapeptides 1. Analogs of tuberactinomycins and capreomycin with activity against vancomycin-resistant enterococci and Pasteurella” (1997).
Values after ≈ are worked out from the molar mass of the structure shown. *1 amine or outer side, *2 acyl side, *3 side chain or, on linkers, in order; H or OH if unused. Where a SMILES comes first, the peptide text is derived from it. Bridges are numbered along the chain shown (N, C = ends). Side-chain parts run from the residue outwards. [ ]: non-standard residue; d: D form. The star is where a group is joined. ξ: configuration not given here. NH(4-cHex-phenyl) = c1cc(C2CCCCC2)ccc1N*; X4 = NC1=NCCC([C@H](N[*:1])C(=O)[*:2])N1; ΔAla(Z-3-ureido) = NC(=O)N/C=C(\N)C(=O)O; ΔDap(Z) = O=C(/C(=C/N[*:3])N[*:1])[*:2]; X6 = c1ccc(Cc2ccc(N*)cc2)cc1; β3hOrn = NCCC[C@H](N)CC(=O)*; X7 = c1cc(N2CCCCC2)ccc1N*; Dap = NC[C@H](N)C(=O)O; CO = O=C([*:1])[*:2]; X5 = Clc1cc(N*)ccc1I; ξDap = NCC(N)C(=O)O

Assays:
Assay type in all cases: functional
[1] = system: Staphylococcus aureus; test: In vitro antibacterial activity against methicillin-resistant Staphylococcus aureus (MRSA), expressed as minimum inhibitory concentration (MIC)
[2] = system: Pasteurella multocida; test: In vitro antibacterial activity against Pasteurella multocida, expressed as minimum inhibitory concentration (MIC)
[3] = system: Escherichia coli; test: In vitro antibacterial activity against Escherichia coli, expressed as minimum inhibitory concentration (MIC)
[4] = system: Enterococcus faecium; test: In vitro antibacterial activity against Enterococcus faecium (vancomycin, methicillin and ciprofloxacin resistant), expressed as minimum inhibitory concentration (MIC).
[5] = system: Enterococcus faecalis; test: In vitro antibacterial activity against Enterococcus faecalis (vancomycin, methicillin and ciprofloxacin resistant), expressed as minimum inhibitory concentration (MIC)
[6] = system: Mus musculus; test: In vivo activity against Escherichia coli in mice after subcutaneous administration; Range is 8-10 mg/kg; conditions: sc, read-out: PD50
[7] = system: Mus musculus; test: In vivo activity against Pasteurella multocida in mice after subcutaneous administration; Range is 8-10 mg/kg; conditions: sc, read-out: PD50
[8] = system: Mus musculus; test: In vivo activity against Pasteurella multocida in mice after subcutaneous administration; conditions: sc, read-out: PD50
[9] = system: Mus musculus; test: In vivo activity against Pasteurella multocida in mice; conditions: read-out: PD50
[10] = system: Enterococcus faecium; test: Protective dose against both MRSA and vancomycin-resistant Enterococcus faecium.; conditions: read-out: PD50
[11] = system: Enterococcus faecalis; test: In vitro antibacterial activity against E. faecalis( vancomycin, methicillin and ciprofloxacin resistant), expressed as minimum inhibitory concentration (MIC)

| SMILES | MIC [1] | MIC [2] | MIC [3] | MIC [4] | MIC [5] | ED50 [6] | ED50 [7] | ED50 [8] | ED50 [9] | ED50 [10] | MIC [11] |
| --- | --- | --- | --- | --- | --- | --- | --- | --- | --- | --- | --- |
| NCCC[C@H](N)CC(=O)NC1CNC(=O)[C@H](C2C[C@@H](O)N=C(N)N2)NC(=O)/C(=C/Nc2ccc(Cl)c(Cl)c2)NC(=O)[C@H](CO)NC(=O)[C@H](CO)NC1=O (stereo partly drawn) | 12.5 mg/L (≈ 15.9 µM) | 0.78 mg/L (≈ 0.99 µM) | 12.5 mg/L (≈ 15.9 µM) | 25 mg/L (≈ 31.7 µM) | 50 mg/L (≈ 63.5 µM) | 10 mg/kg | 10 mg/kg |  |  |  |  |
| C[C@@H]1NC(=O)C(N)CNC(=O)[C@H](C2CCN=C(N)N2)NC(=O)/C(=C/Nc2ccc(C3CCCCC3)cc2)NC(=O)[C@H](CNC(=O)C[C@@H](N)CCCN)NC1=O.NCCC[C@H](N)CC(=O)NC[C@@H]1NC(=O)[C@H](CO)NC(=O)C(N)CNC(=O)[C@H](C2CCN=C(N)N2)NC(=O)/C(=C/Nc2ccc(C3CCCCC3)cc2)NC1=O (stereo partly drawn) | 1.56 mg/L | 0.2 mg/L | 6.25 mg/L | 6.25 mg/L | 12.5 mg/L |  |  | 2 mg/kg |  |  |  |
| C[C@@H]1NC(=O)C(N)CNC(=O)[C@H](C2CCN=C(N)N2)NC(=O)/C(=C/Nc2ccc(Cl)c(Cl)c2)NC(=O)[C@H](CNC(=O)C[C@@H](N)CCCN)NC1=O.NCCC[C@H](N)CC(=O)NC[C@@H]1NC(=O)[C@H](CO)NC(=O)C(N)CNC(=O)[C@H](C2CCN=C(N)N2)NC(=O)/C(=C/Nc2ccc(Cl)c(Cl)c2)NC1=O (stereo partly drawn) | 0.78 mg/L | 0.39 mg/L | 6.25 mg/L | 12.5 mg/L | 25 mg/L |  |  | 6 mg/kg |  |  |  |
| NCC[C@@H](O)[C@H](N)CC(=O)NC1CNC(=O)[C@@H](C2CCN=C(N)N2)NC(=O)/C(=C/NC(=O)Nc2ccc(C3CCCC3)cc2Cl)NC(=O)[C@@H](CO)NC(=O)[C@@H](CO)NC1=O (stereo partly drawn) | 3.12 mg/L (≈ 3.61 µM) |  |  | 3.12 mg/L (≈ 3.61 µM) | 6.25 mg/L (≈ 7.23 µM) |  |  |  |  |  |  |
| NCCC[C@H](N)CC(=O)NC[C@@H]1NC(=O)[C@H](CO)NC(=O)C(N)CNC(=O)[C@H](C2CCN=C(N)N2)NC(=O)/C(=C/NC(=O)Nc2cc(Cl)c(Cl)c(Cl)c2)NC1=O (stereo partly drawn) | 0.78 mg/L (≈ 0.92 µM) | 0.2 mg/L (≈ 0.236 µM) | 12.5 mg/L (≈ 14.7 µM) | 1.56 mg/L (≈ 1.84 µM) | 3.12 mg/L (≈ 3.68 µM) |  |  |  | 4 mg/kg | 3 mg/kg |  |
| C[C@@H]1NC(=O)C(N)CNC(=O)[C@H](C2CCN=C(N)N2)NC(=O)/C(=C/Nc2nc(-c3ccc(Br)cc3)cs2)NC(=O)[C@H](CNC(=O)C[C@@H](N)CCCN)NC1=O.NCCC[C@H](N)CC(=O)NC[C@@H]1NC(=O)[C@H](CO)NC(=O)C(N)CNC(=O)[C@H](C2CCN=C(N)N2)NC(=O)/C(=C/Nc2nc(-c3ccc(Br)cc3)cs2)NC1=O (stereo partly drawn) | 12.5 mg/L | 3.13 mg/L | 100 mg/L | 12.5 mg/L | 50 mg/L |  |  |  |  |  |  |
| C[C@@H]1NC(=O)C(N)CNC(=O)[C@H](C2CCN=C(N)N2)NC(=O)/C(=C/NC(N)=O)NC(=O)[C@H](CNC(=O)C[C@@H](N)CCCN)NC1=O.NCCC[C@H](N)CC(=O)NC[C@@H]1NC(=O)[C@H](CO)NC(=O)C(N)CNC(=O)[C@H](C2CCN=C(N)N2)NC(=O)/C(=C/NC(N)=O)NC1=O (stereo partly drawn) (H-[ξDap]S[Dap](β3hOrn)[ΔAla(Z-3-ureido)][X4]; lactam 1-C) | 100 mg/L | 50 mg/L | 200 mg/L | > 1000 mg/L |  |  |  |  |  |  | > 1000 mg/L |
| NCCC[C@H](N)CC(=O)NC[C@@H]1NC(=O)[C@H](CO)NC(=O)C(N)CNC(=O)[C@H](C2CCN=C(N)N2)NC(=O)/C(=C/NC(=O)Nc2ccc(C3CCCCC3)cc2)NC1=O (stereo partly drawn) (H-[ξDap]S[Dap](β3hOrn)[ΔDap(Z)]([CO-NH(4-cHex-phenyl)])[X4]; lactam 1-C) | 1.56 mg/L (≈ 1.89 µM) | 0.39 mg/L (≈ 0.472 µM) | 25 mg/L (≈ 30.2 µM) | 1.56 mg/L (≈ 1.89 µM) | 3.12 mg/L (≈ 3.77 µM) |  |  |  |  |  |  |
| C[C@@H]1NC(=O)C(N)CNC(=O)[C@H](C2CCN=C(N)N2)NC(=O)/C(=C/NC(=O)Nc2ccc(Cc3ccccc3)cc2)NC(=O)[C@H](CNC(=O)C[C@@H](N)CCCN)NC1=O.NCCC[C@H](N)CC(=O)NC[C@@H]1NC(=O)[C@H](CO)NC(=O)C(N)CNC(=O)[C@H](C2CCN=C(N)N2)NC(=O)/C(=C/NC(=O)Nc2ccc(Cc3ccccc3)cc2)NC1=O (stereo partly drawn) (H-[ξDap]S[Dap](β3hOrn)[ΔDap(Z)]([CO-X6])[X4]; lactam 1-C) | 1.56 mg/L | 0.78 mg/L | 12.5 mg/L | 3.12 mg/L | 6.25 mg/L |  |  |  |  |  |  |
| NCCC[C@H](N)CC(=O)NC[C@@H]1NC(=O)[C@H](CO)NC(=O)C(N)CNC(=O)[C@H](C2CCN=C(N)N2)NC(=O)/C(=C/NC(=O)Nc2ccc(N3CCCCC3)cc2)NC1=O (stereo partly drawn) (H-[ξDap]S[Dap](β3hOrn)[ΔDap(Z)]([CO-X7])[X4]; lactam 1-C) | 3.12 mg/L (≈ 3.77 µM) | 1.56 mg/L (≈ 1.88 µM) | 50 mg/L (≈ 60.4 µM) | 100 mg/L (≈ 121 µM) | 100 mg/L (≈ 121 µM) |  |  |  |  |  |  |
| C[C@@H]1NC(=O)C(N)CNC(=O)[C@H](C2CCN=C(N)N2)NC(=O)C(CNC(=O)Nc2ccc(I)c(Cl)c2)NC(=O)[C@H](CNC(=O)C[C@@H](N)CCCN)NC1=O.NCCC[C@H](N)CC(=O)NC[C@@H]1NC(=O)[C@H](CO)NC(=O)C(N)CNC(=O)[C@H](C2CCN=C(N)N2)NC(=O)C(CNC(=O)Nc2ccc(I)c(Cl)c2)NC1=O (stereo partly drawn) (H-[ξDap]S[Dap](β3hOrn)[ξDap]([CO-X5])[X4]; lactam 1-C) | 3.12 mg/L | 0.78 mg/L | 6.25 mg/L | 12.5 mg/L | 50 mg/L |  |  |  | 7 mg/kg |  |  |
| CN[C@H](CC(C)C)C(=O)N[C@H]1C(=O)N[C@@H](CC(N)=O)C(=O)N[C@H]2C(=O)N[C@H]3C(=O)N[C@H](C(=O)N[C@H](C(=O)O)c4cc(O)cc(O)c4-c4cc3ccc4O)[C@H](O)c3ccc(c(Cl)c3)Oc3cc2cc(c3O[C@@H]2O[C@H](CO)[C@@H](O)[C@H](O)[C@H]2O[C@H]2C[C@](C)(N)[C@H](O)[C@H](C)O2)Oc2ccc(cc2Cl)[C@H]1O [VANCOMYCIN] | 0.78 mg/L (≈ 0.538 µM) |  |  | > 100 mg/L | > 100 mg/L |  |  |  |  |  |  |
